Key:
[1] = system: carrageenan-induced rat paw edema; assay: Carrageenan-induced rat paw edema model; assay type: in vivo; details: for Rat Paw Thickness: mean ± SD; for inhibition in vivo at 2.5 mg/kg / inhibition in vivo at 5 mg/kg / inhibition in vivo at 10 mg/kg: Rattus norvegicus
Description: The Carrageenan-induced rat paw edema model was used to assess the anti-inflammatory potential of novel compounds 8–14. Induction of inflammation was performed in all animals by intraplantar injection of […] 0.5% carrageenan saline into the left hind paw.
Animals (n = 200) were randomly divided into the following groups: control groups, that received either 1% DMSO or naproxen, and experimental groups, that received the novel compounds 8–14.
Control groups included DMSO and naproxen groups. Rats belonging to the DMSO group received 1% DMSO in the same volume as the compounds 8–14, 60 min before carrageenan injection. Moreover, naproxen groups included rats that were subjected to naproxen treatment in three doses: 2.5 mg/kg, 5 mg/kg, and 10 mg/kg. Naproxen was applied in the same manner as 1% DMSO.
Experimental groups included rats that were treated with compounds 8–14 and they were divided into three subgroups depending on the applied dose: 2.5 mg/kg, 5 mg/kg, and 10 mg/kg. The examined compounds were dissolved in 1% DMSO prior to treatment and applied to rats 60 min before inducing inflammation, i.e., before carrageenan injection. Doses of naproxen and investigated compounds were defined based on our previously published research.
In order to quantify the anti-inflammatory effects of the tested compounds, left paw thickness was measured at specific time points: prior to inflammation induction (moment 0) and 1, 2, 3, and 4 h (moments 1, 2, 3, and 4) following carrageenan injection. Tissue thickness was measured in the middle of the rat paw using a Digital Vernier caliper (Aerospace, China). The percentage of inhibition of paw edema after treatment with different agents was calculated according to the formula, Equation (2):% Inhibition = 100 × [1 − (Yt/Yc)](2) where Yt = average increase in paw thickness in the treated group of rats between two measurement moments, and Yc = average increase in paw thickness in the untreated group of rats between two measurement moments.

HCT 116 = assay: MTT cytotoxicity assay, HCT 116; assay type: cell-based, human; details: for IC50: Homo sapiens, mean ± SD
Description: Three cancer cell lines (MDA-MB-231, HCT116 and HeLa; i.e., human breast cancer cells, human colorectal cancer cells, and human cervical cancer cells, respectively), and one non-malignant fibroblast MRC-5 cell line (control) were used in this study. The American Type Cell Collection (ATCC, Manassas, VA, USA) provided all examined cell lines. The cells were grown in a complete medium made up of high-glucose DMEM media supplemented with 10% fetal bovine serum and […] L-glutamine (both from Sigma-Aldrich, USA). The cells were cultured in 25 cc flasks (Thermo Fischer Scientific, Waltham, MA, USA) at 37 °C with 100% humidity in a 5% CO2 atmosphere.
The MTT test was used to assess the cytotoxicity of compounds 1–14 [44]. The cytotoxicity of naproxen was also investigated due to its clinical use and structural similarity. Throughout the exponential development period, cells were taken from culture flasks and counted, and 5 × 10^3 cells/well were planted into 96-well culture plates. Following that, the cell lines were treated with varying doses of the investigated chemicals (1–14), naproxen ([…]), and fresh complete media as a control. All evaluated cells were incubated for 24, 48, and 72 h at 37 °C in an environment containing 5% CO2 and 100% humidity. Following incubation, each well’s culture media was taken out, each well received an addition of MTT solution at a final concentration of 0.5 mg/mL, and the cells were left to incubate for an additional four hours. The MTT solution was then withdrawn carefully, and the formazan crystals were dissolved in DMSO. After shaking the plates for 10 min, absorbance at 595 nm was measured using a multiplate reader (Zenyth 3100, Anthos Labtec Instruments, Salzburg, Austria). All concentrations of the tested compounds were performed in three separate wells of the microtiter plates and in three separate experiments. The results were reported as a ratio to the control value, untreated cells. IC50 values were also determined using Microsoft Office Excel 2021. The percentage of viable cells was estimated by dividing the readout absorbance value in the wells containing treated cells by the average absorbance value measured in the wells containing untreated cells, and multiplying the result by 100 [44]. % of the viable cells = ((absorbance of treated cell-absorbance of blank)/(absorbance of untreated cell-absorbance of blank)) × 100(3)

[2] = 2.5 mg/kg, 1 h after carrageenan
[3] = 2.5 mg/kg, 2 h after carrageenan
[4] = 2.5 mg/kg, 3 h after carrageenan
[5] = 2.5 mg/kg, 4 h after carrageenan
[6] = 5.0 mg/kg, 1 h after carrageenan
[7] = 5.0 mg/kg, 2 h after carrageenan
[8] = 5.0 mg/kg, 3 h after carrageenan
[9] = 5.0 mg/kg, 4 h after carrageenan
[10] = 10.0 mg/kg, 1 h after carrageenan
[11] = 10.0 mg/kg, 2 h after carrageenan
[12] = 10.0 mg/kg, 3 h after carrageenan
[13] = 10.0 mg/kg, 4 h after carrageenan

SMILES | Rat Paw Thickness [1, 2] [mm] | Rat Paw Thickness [1, 3] [mm] | Rat Paw Thickness [1, 4] [mm] | Rat Paw Thickness [1, 5] [mm] | Rat Paw Thickness [1, 6] [mm] | Rat Paw Thickness [1, 7] [mm] | Rat Paw Thickness [1, 8] [mm] | Rat Paw Thickness [1, 9] [mm] | Rat Paw Thickness [1, 10] [mm] | Rat Paw Thickness [1, 11] [mm] | Rat Paw Thickness [1, 12] [mm] | Rat Paw Thickness [1, 13] [mm] | inhibition in vivo at 2.5 mg/kg ([1]; 2.5 mg/kg, 1 h) [%] | inhibition in vivo at 2.5 mg/kg ([1]; 2.5 mg/kg, 2 h) [%] | inhibition in vivo at 2.5 mg/kg ([1]; 2.5 mg/kg, 3 h) [%] | inhibition in vivo at 2.5 mg/kg ([1]; 2.5 mg/kg, 4 h) [%] | inhibition in vivo at 5 mg/kg ([1]; 5.0 mg/kg, 1 h) [%] | inhibition in vivo at 5 mg/kg ([1]; 5.0 mg/kg, 2 h) [%] | inhibition in vivo at 5 mg/kg ([1]; 5.0 mg/kg, 3 h) [%] | inhibition in vivo at 5 mg/kg ([1]; 5.0 mg/kg, 4 h) [%] | other results
COc1ccc2cc([C@H](C)C(=O)NC(=S)Nc3ccc(C)cc3)ccc2c1 [Compound 9, (S)-2-(6-methoxynaphthalen-2-yl)-N-(p-tolylcarbamothioyl)propanamide] | 6.60 ± 0.10 | 6.33 ± 0.06 | 5.97 ± 0.06 | 5.70 ± 0.26 | 6.53 ± 0.32 | 6.23 ± 0.23 | 5.90 ± 0.17 | 5.50 ± 0.36 | 6.20 ± 0.17 | 5.83 ± 0.29 | 5.33 ± 0.15 | 5.05 ± 0.09 | 25.2 | 28.8 | 35.1 | 37.8 | 22.4 | 27.3 | 31.5 | 42.2 | inhibition in vivo at 10 mg/kg ([1]; 10.0 mg/kg, 1 h): 22.4%; inhibition in vivo at 10 mg/kg ([1]; 10.0 mg/kg, 2 h): 30.3%; inhibition in vivo at 10 mg/kg ([1]; 10.0 mg/kg, 3 h): 44.1%; inhibition in vivo at 10 mg/kg ([1]; 10.0 mg/kg, 4 h): 50%; Cytotoxic effect against the HCT 116 cell line (in words) (HCT 116): moderate cytotoxic effects; IC50 (HCT 116; HCT-116, 24 h): > 200 µM; IC50 (HCT 116; HCT-116, 48 h): 105 ± 14.8 µM; IC50 (HCT 116; HCT-116, 72 h): 52.9 ± 8.1 µM
COC(=O)[C@H](Cc1c[nH]c2ccccc12)NC(=S)NC(=O)[C@@H](C)c1ccc2cc(OC)ccc2c1 [Compound 14, Methyl (((S)-2-(6-methoxynaphthalen-2-yl)propanoyl)carbamothioyl)tryptophanate] | 6.53 ± 0.42 | 6.23 ± 0.25 | 5.90 ± 0.26 | 5.33 ± 0.49 | 6.77 ± 0.38 | 6.53 ± 0.42 | 6.17 ± 0.25 | 5.80 ± 0.10 | 7.03 ± 0.21 | 6.47 ± 0.06 | 6.03 ± 0.25 | 5.67 ± 0.21 | 12.9 | 16.7 | 18.9 | 37.8 | 25.2 | 27.3 | 33.3 | 42.2 | inhibition in vivo at 10 mg/kg ([1]; 10.0 mg/kg, 1 h): 11.6%; inhibition in vivo at 10 mg/kg ([1]; 10.0 mg/kg, 2 h): 27.3%; inhibition in vivo at 10 mg/kg ([1]; 10.0 mg/kg, 3 h): 36.9%; inhibition in vivo at 10 mg/kg ([1]; 10.0 mg/kg, 4 h): 46.7%; Cytotoxic effect against the HCT 116 cell line (in words) (HCT 116): moderate cytotoxic effects; IC50 (HCT 116; HCT-116, 24 h): 150 ± 7.6 µM; IC50 (HCT 116; HCT-116, 48 h): 108 ± 12.7 µM; IC50 (HCT 116; HCT-116, 72 h): 47.1 ± 5.4 µM
COC(=O)[C@H](Cc1ccccc1)NC(=S)NC(=O)[C@@H](C)c1ccc2cc(OC)ccc2c1 [Compound 13, Methyl (((S)-2-(6-methoxynaphthalen-2-yl)propanoyl)carbamothioyl)phenylalaninate] | 7.0 ± 0.10 | 6.60 ± 0.10 | 6.13 ± 0.12 | 5.83 ± 0.06 | 6.90 ± 0.10 | 6.43 ± 0.32 | 5.90 ± 0.36 | 5.47 ± 0.23 | 6.77 ± 0.42 | 6.40 ± 0.36 | 6.10 ± 0.36 | 5.80 ± 0.30 | 6.12 | 13.6 | 22.5 | 24.4 | -0.68 | 9.09 | 20.7 | 31.1 | inhibition in vivo at 10 mg/kg ([1]; 10.0 mg/kg, 1 h): 19.7%; inhibition in vivo at 10 mg/kg ([1]; 10.0 mg/kg, 2 h): 27.3%; inhibition in vivo at 10 mg/kg ([1]; 10.0 mg/kg, 3 h): 29.7%; inhibition in vivo at 10 mg/kg ([1]; 10.0 mg/kg, 4 h): 33.3%; IC50 (HCT 116; HCT-116, 24 h): > 200 µM; IC50 (HCT 116; HCT-116, 48 h): > 200 µM; IC50 (HCT 116; HCT-116, 72 h): 99.6 ± 4.9 µM
COc1ccc2cc([C@H](C)C(=O)NC(=S)Nc3ccccc3)ccc2c1 [Compound 8, (S)-2-(6-methoxynaphthalen-2-yl)-N-(phenylcarbamothioyl)propanamide] | 5.67 ± 0.15 | 5.43 ± 0.15 | 5.07 ± 0.21 | 4.53 ± 0.50 | 6.0 ± 0.36 | 5.8 ± 0.44 | 5.40 ± 0.44 | 4.96 ± 0.35 | 6.0 ± 0.40 | 5.60 ± 0.44 | 5.27 ± 0.38 | 5.07 ± 0.21 | 19.7 | 21.2 | 26.1 | 44.4 | 23.8 | 24.2 | 31.5 | 44.9 | inhibition in vivo at 10 mg/kg ([1]; 10.0 mg/kg, 1 h): 29.3%; inhibition in vivo at 10 mg/kg ([1]; 10.0 mg/kg, 2 h): 39.4%; inhibition in vivo at 10 mg/kg ([1]; 10.0 mg/kg, 3 h): 45.9%; inhibition in vivo at 10 mg/kg ([1]; 10.0 mg/kg, 4 h): 46.7%; IC50 (HCT 116; HCT-116, 24 h): > 200 µM; IC50 (HCT 116; HCT-116, 48 h): > 200 µM; IC50 (HCT 116; HCT-116, 72 h): 101 ± 15.5 µM
